Laboratory results published in patent US7186879B2, “Screening systems and methods for identifying modulators of xenobiotic metabolism” (Baylor College of Medicine, priority 2001, dated 2007).
“Also recorded” adds a separate entry of the source.

Columns and labels:
[1] = tested on: CYP2E1, CYP1A2, CYP3A11, GSTPi; test: Northern blot of APAP metabolizing genes in liver of wild-type and CAR null mice; conditions: for suppression of CYP2E1 and induction of CYP1A2, CYP3A11, GSTPi: CAR null mice; for CYP1A2 mRNA / CYP2E1 mRNA levels / CYP3A11 mRNA / GSTPi mRNA: wild-type animals, three days pretreatment
Procedure: CAR (+/+) or CAR (−/−) animals pretreated with phenobarbital (PB), TCPOBOP (TC), or vehicle alone were administered a 250 mg/kg dose of APAP by intraperitoneal injection (n=5–7 per treatment group) (FIG. 11A). […] Liver sections from different treatments were examined by histological staining (FIG. 11B). Liver samples from all treated animals were analyzed but only representative histology is presented. […] CAR (+/+) or CAR (−/−) animals were pretreated with PB, TCPOBOP (TC), or vehicle alone for three days (FIG. 11C). […] Liver samples treated as indicated were collected two hours after APAP and GSH levels were measured (n=5–7) (FIG. 11D).
CAR (+/+) and CAR (−/−) animals were given 250 mg/kg, 500 mg/kg, or 800 mg/kg doses of APAP, respectively (FIG. 12A). […] Total liver RNA was prepared from 500 mg/kg APAP treated CAR (+/+) and CAR (−/−) livers at 0 and 2 hours as indicated. […] The same blot was stripped and re-probed with β-actin as loading control.
For histologic examination of the treated mice, the left lobe of the livers was removed and immediately fixed in 4% formaldehyde-PBS solution, embedded in paraffin, sectioned at 5 μm, and stained with hematoxylin and eosin. Samples were examined under a light microscope. For RNA studies, total RNA was extracted using TRIzol Reagent (Invitrogen Life Technologies, Carlsbad, Calif.) according to the manufacture's instruction. Equivalent amount of RNA from 3–5 mice were pooled and 10 μg of each sample was subjected to northern blot analysis. […] Hepatic non-protein thiol was measured as an indication of hepatic GSH content. Mice were sacrificed two hours after intraperitoneal injection with APAP. […] Supernatant (0.5 ml) was mixed with 1.5 ml 0.1 mM Ellman's reagent [5,5′-dithio-bis(2-nitrobenzoic acid)] […] Absorbance was read at 412 nm using GSH solutions as quantitative standards.

[2] = tested on: CYP enzyme activity; test: Zoxazolamine paralysis test; conditions: for effect of pretreatment on paralysis: CAR −/− mice; for duration of zoxazolamine-induced paralysis: 3-day pretreatment, zoxazolamine 300 mg/kg i.p.; for animals that died: female CAR −/− mice after zoxazolamine; for effect of pretreatment on duration of paralysis: wild-type animals
Procedure: In these experiments, mice were pretreated for three days with PB or TCPOBOP, after which time they were given a single intraperitoneal injection of zoxazolamine (300 mg/kg). Paralysis time was recorded as the time when the mice were able to right themselves repeatedly.

[3] = target: T1, human CAR (Homo sapiens, UniProt Q14994); test: Sensitivity of CAR humanized mice to APAP, serum ALT; design: expressed in transfected cells; host or cells: liver of transgenic C57BL/6 mice (line 6210, albumin promoter), crossed onto the murine CAR -/- background; conditions: CAR humanized mice pretreated three days, APAP 250 mg/kg
T1 sequence (Q14994 1-348 isoform Q14994-2): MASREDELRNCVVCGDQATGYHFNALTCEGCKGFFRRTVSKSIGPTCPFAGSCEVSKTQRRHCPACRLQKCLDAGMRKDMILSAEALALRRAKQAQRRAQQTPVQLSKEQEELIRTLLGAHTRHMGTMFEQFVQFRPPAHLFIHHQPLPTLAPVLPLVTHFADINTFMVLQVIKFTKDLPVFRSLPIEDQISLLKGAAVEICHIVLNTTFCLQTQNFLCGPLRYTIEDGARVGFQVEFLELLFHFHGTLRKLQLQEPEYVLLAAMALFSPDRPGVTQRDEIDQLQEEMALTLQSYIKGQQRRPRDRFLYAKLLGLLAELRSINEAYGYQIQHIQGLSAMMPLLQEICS
Procedure: FIG. 13 illustrates the sensitivity of CAR humanized mice to APAP. CAR humanized mice (n=3) were pretreated with phenobarbital (PB) or vehicle alone for three days and administered a 250 mg/kg dose of APAP by intraperitoneal injection. Serum was collected and alanine aminotransferase (ALT) levels were measured after 24 hours.

[4] = tested on: hepatocytes; test: Hepatocyte proliferation (BrdU incorporation); format: in vivo, mouse; conditions: wild-type animals
Procedure: FIG. 3B is a set of pictures of PB-treated, TCPOBOP-treated, or control mice that were treated with BrdU for two hours before their liver tissues were harvested.
To determine the proliferation of hepatocytes following PB or TCPOBOP treatment, mice pretreated with corn oil, PB, or TCPOBOP received a single intraperitoneal dose of BrdU/FdU (2 ml/100 g, Amersham). Mice were sacrificed approximately 2 hours after BrdU administration. BrdU incorporation was determined using a mouse anti-BrdU monoclonal antibody (DAKO Corporation) and Vectastain ABC Kit (Vector Laboratories Inc.) (FIG. 3B), using standard procedures.

[5] = target: T1, human CAR; test: Northern blot of gene induction in CAR humanized mice; conditions: CAR humanized animals
Procedure: CAR humanized mice (n=3) were treated with 500 mg/kg APAP or vehicle. After two hours, total liver RNA was prepared and subjected to Northern blot analysis with indicated probes.

[6] = target: T1, human CAR; test: CYP2B10 mRNA induction in humanized CAR mice lacking murine CAR; conditions: mice expressing only human CAR in liver, 24 hours
Procedure: Total RNA was prepared from the livers of the individual mice, and CYP2B10 mRNA expression was assessed by Northern blotting.
Mice heterozygous for the murine CAR gene mutation and lacking the human CAR transgene express only murine CAR. […] Mice homozygous for the murine CAR gene mutation and carrying the human CAR transgene express only human CAR in the liver.

[7] = tested on: wild-type and CAR −/− mice; conditions: acute treatment (Heubel et al.); cited from earlier work
[8] = target: T2, murine CAR receptor (Mus musculus, UniProt O35627, M138L); conditions: cited from earlier work
T2 sequence (O35627 1-358 M138L): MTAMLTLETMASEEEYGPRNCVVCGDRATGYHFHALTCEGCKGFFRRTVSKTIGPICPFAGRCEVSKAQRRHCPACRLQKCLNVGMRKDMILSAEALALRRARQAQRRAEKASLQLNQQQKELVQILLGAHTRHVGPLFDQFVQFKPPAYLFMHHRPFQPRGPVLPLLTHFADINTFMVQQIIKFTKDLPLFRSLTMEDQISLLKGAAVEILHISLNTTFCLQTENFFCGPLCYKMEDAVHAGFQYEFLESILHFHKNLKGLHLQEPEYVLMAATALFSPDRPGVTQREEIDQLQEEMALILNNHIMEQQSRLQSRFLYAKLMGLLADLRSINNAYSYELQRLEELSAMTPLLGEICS

Row | Compound | suppression of CYP2E1 and induction of CYP1A2, CYP3A11, GSTPi [1] | CYP1A2 mRNA [1] | CYP2E1 mRNA levels [1] | CYP3A11 mRNA [1] | GSTPi mRNA [1] | effect of pretreatment on paralysis [2] | duration of zoxazolamine-induced paralysis ([2]; female CAR (+/+) mice) | duration of zoxazolamine-induced paralysis ([2]; female CAR (−/−) mice) | animals that died [2] | duration of zoxazolamine-induced paralysis ([2]; male CAR (+/+) mice) [min] | duration of zoxazolamine-induced paralysis ([2]; male CAR (−/−) mice) [min] | effect of pretreatment on duration of paralysis [2] | sensitivity to APAP [3] | BrdU-positive hepatocytes [4] | expression of CYP1A2 and CYP3A11 mRNAs [5] | induction of CYP2B10 mRNA [6] | increase in liver mass relative to total body mass [7] | activity on murine CAR receptor [8]
1 | CCC1(c2ccccc2)C(=O)NC(=O)NC1=O [PB, phenobarbital] | Neither the suppression of CYP2E1 nor the induction of the other enzymes was observed | induced | modestly suppressed | induced | induced | not affected | not paralyzed | died | two animals from each group | <20 | >300 | significantly decreased the duration of paralysis | increased sensitivity to APAP | presence of BrdU-positive hepatocytes | induced expression | induction of CYP2B10 mRNA; also recorded: induces a CAR target gene |  | 
2 | Clc1cnc(Oc2ccc(Oc3ncc(Cl)cc3Cl)cc2)c(Cl)c1 [TCPOBOP, 1,4-bis[2-(3,5-dichloropyridyloxy)]benzene] | Neither the suppression of CYP2E1 nor the induction of the other enzymes was observed | induced | modestly suppressed | induced | induced | not affected | not paralyzed | died | two animals from each group | <20 | >300 | significantly decreased the duration of paralysis |  | presence of BrdU-positive hepatocytes |  | did not respond; also recorded: not by TCPOBOP | up to 2 fold | agonist ligand; also recorded: activate murine CAR
